# Values quoted from earlier work, collected in patent US12441685B2, “Compounds and methods for treating cancer” (DANA-FARBER CANCER INSTITUTE, INC., priority 2015, dated 2025).
# Conditions: Phase II study, patients with NBCCS (Tang et al., 2012)
smiles,measurement,value
CS(=O)(=O)c1ccc(C(=O)Nc2ccc(Cl)c(-c3ccccn3)c2)c(Cl)c1 [vismodegib],participants who ceased treatment due to serious adverse effects,14 of 26
